In US12691084B2, “Pharmaceutical composition for preventing or treating bone diseases” (INDUSTRY FOUNDATION OF CHONNAM NATIONAL UNIVERSITY, priority 2019, dated 2026):
“Also recorded” adds a separate entry of the source.

Columns and labels:
ovariectomized mouse = assay: Ovariectomized (OVX) mouse osteoporosis model, tibia microcomputer tomography; format: in vivo
Description: In order to confirm in vivo efficacy of the PMSA compound, an ovariectomized animal model (OVX, ovariectomized mouse) with osteoporosis due to estrogen deficiency after ovariectomy in 8-week-old female mouse was prepared. #25 (PMSA-3-Ac, 25 mg/kg) or #25-D12 (PMSA-2-OMe-5-Cl, 20 mg/kg) were injected intraperitoneally once every two days to the ovariectomized mouse model. After 4 weeks, the tibia of the mouse was analyzed for bone density by microcomputer tomography.

mouse bone marrow cells = assay: F-actin staining, actin-ring formation; format: cell-based; settings: 6 uM, 4 to 5 days
Description: In order to determine the activity of differentiated osteoclasts, an ability to differentiate the cells into multinuclear cells was firstly confirmed through F-actin staining. Specifically, 5×10^4 mouse hone marrow cells per well were put into a 24-well plate in which glass coated with L-Lysine was placed (Corning, 354085). Simultaneously, the cells were treated with PSTP-3,5-Me 6 uM and cultured for 4 to 5 days. The differentiated cells were fixed with 4% formaldehyde for 10 minutes and washed with PBS. For the antigen-antibody reaction, a reaction was conducted in 0.1% Triton-PBS for 20 minutes, followed by reacting the same in 1% BSA for 1 hour. Thereafter, the F-actin antibody (Thermo Fisher Scientific, A12379) was reacted for 1 hour and than washed. Cell nuclei were stained through 4′,6-diamidino-2-phenylindole (DAPI, Dilactate, Thermo Fisher Scientific, D3571) staining, and then photographed under a microscope. As a result, it was confirmed by comparing shies of F-actin that PSTP-3,5-Me inhibited differentiation into multinuclear cells.

[1] = 20 mg/kg intraperitoneally once every two days, 4 weeks, tibia, compared to control (OVX)

Row | SMILES | bone density and bone volume (ovariectomized mouse; 20 mg/kg intraperitoneally once every two days, 4 weeks, compared to control (OVX)) | bone volume (BV) increase (ovariectomized mouse; [1]) [%] | cortical volume (Ct.V) increase (ovariectomized mouse; [1]) [%] | total bone volume (TV) increase (ovariectomized mouse; [1]) [%] | trabecular bone mineral density (Th. BMD) increase (ovariectomized mouse; [1]) [%] | trabecular volume (Th.V) increase (ovariectomized mouse; [1]) [times] | bone loss (ovariectomized mouse; OVX mouse model) | differentiation into multinuclear cells (F-actin) (mouse bone marrow cells) | actin-ring formation (mouse bone marrow cells; compared to control)
1 | COc1ccc(Cl)cc1N(CC(=O)Nc1ccccc1Sc1ccccc1)S(C)(=O)=O [#25-D12, 2-(N-(5-chloro-2-methoxyphenyl)methylsulfonamido)-N-(2-(phenylthio)phenyl)acetamide] | higher | 6.9 | 5.4 | 5.4 | 42.3 | 2.7 | preventing bone loss in the trabecular bone portion; also recorded: effectively reduced bone loss |  | 
2 | Cc1cc(C)cc(N([C@@H](C)C(=O)Nc2ccccc2Sc2ccccc2)S(C)(=O)=O)c1 [#25-D5, N^2-(3,5-dimethylphenyl)-N^2-(methylsulfonyl)-N-[2-(phenylthio)phenyl]alanineamide] |  |  |  |  |  |  |  | inhibited | small-sized actin-ring structure
